Results published in PubChem BioAssay AID328 (DTP/NCI, 2004).
Inconclusive results and toxic doses are left out.

Tested on: BDF1 mice, P388 leukemia ip, median survival T/C
Experiment: NCI In Vivo Anticancer Drug Screen. Data for tumor model P388 Leukemia (intraperitoneal) in B6D2F1 (BDF1) mice
Details: endpoint: median survival time, higher = longer survival
How it was run: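 Vehicle-dosed animals serve as the reference; survival of compound-dosed, tumour-implanted mice is divided by it.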

[1] = dose: 12.5 mg/kg/injection, schedule: Q01DX009 (ip), vehicle: other
[2] = dose: 25.0 mg/kg/injection, schedule: Q01DX009 (ip), vehicle: other
[3] = dose: 12.5 mg/kg/injection, schedule: Q01DX009 (ip), vehicle: saline with Tween-80
[4] = dose: 25.0 mg/kg/injection, schedule: Q01DX009 (ip), vehicle: saline with Tween-80
[5] = dose: 50.0 mg/kg/injection, schedule: Q01DX009 (ip), vehicle: saline with Tween-80
[6] = dose: 100.0 mg/kg/injection, schedule: Q01DX009 (ip), vehicle: saline with Tween-80
[7] = dose: 50.0 mg/kg/injection, schedule: Q04DX003 (ip), vehicle: saline
[8] = dose: 100.0 mg/kg/injection, schedule: Q04DX003 (ip), vehicle: saline
[9] = dose: 200.0 mg/kg/injection, schedule: Q04DX003 (ip), vehicle: saline
[10] = dose: 100.0 mg/kg/injection, schedule: Q01DX009 (ip), vehicle: Klucel (hydroxypropylcellulose) (HPC)
[11] = dose: 200.0 mg/kg/injection, schedule: Q01DX009 (ip), vehicle: Klucel (hydroxypropylcellulose) (HPC)
[12] = dose: 100.0 mg/kg/injection, schedule: Q04DX003 (ip), vehicle: Klucel (hydroxypropylcellulose) (HPC)
[13] = dose: 200.0 mg/kg/injection, schedule: Q04DX003 (ip), vehicle: Klucel (hydroxypropylcellulose) (HPC)
[14] = dose: 400.0 mg/kg/injection, schedule: Q04DX003 (ip), vehicle: Klucel (hydroxypropylcellulose) (HPC)
[15] = dose: 100.0 mg/kg/injection, schedule: Q04DX003 (ip), vehicle: saline sonified
[16] = dose: 200.0 mg/kg/injection, schedule: Q04DX003 (ip), vehicle: saline sonified
[17] = dose: 400.0 mg/kg/injection, schedule: Q04DX003 (ip), vehicle: saline sonified
[18] = dose: 200.0 mg/kg/injection, schedule: Q01DX009 (ip), vehicle: saline with Tween-80
[19] = dose: 400.0 mg/kg/injection, schedule: Q04DX003 (ip), vehicle: saline

In the case of `O=C(C=C(C(F)(F)F)C(F)(F)F)c1ccc(F)cc1`, the T/C (dose: 6.25 mg/kg/injection, schedule: Q01DX009 (ip), vehicle: Klucel (hydroxypropylcellulose) (HPC)) is reported as 101 % of control, the T/C (dose: 6.25 mg/kg/injection, schedule: Q01DX009 (ip), vehicle: other) is reported as 100 % of control and the T/C (dose: 12.5 mg/kg/injection, schedule: Q01DX009 (ip), vehicle: Klucel (hydroxypropylcellulose) (HPC)) is reported as 105 % of control. For the same compound, the T/C [1] was 109 % of control, the T/C (dose: 16.5 mg/kg/injection, schedule: Q01DX009 (ip), vehicle: other) was 113 % of control and the T/C (dose: 25.0 mg/kg/injection, schedule: Q01DX009 (ip), vehicle: Klucel (hydroxypropylcellulose) (HPC)) was 118 % of control. The T/C [2] was 118 % of control.

With `Oc1ccc(-c2n[nH]c3c2CCCc2ccccc2-3)cc1` the T/C (dose: 12.5 mg/kg/injection, schedule: Q04DX003 (ip), vehicle: saline with Tween-80) was 109 % of control, the T/C (dose: 25.0 mg/kg/injection, schedule: Q04DX003 (ip), vehicle: saline with Tween-80) was 118 % of control and the T/C (dose: 50.0 mg/kg/injection, schedule: Q04DX003 (ip), vehicle: saline with Tween-80) was 113 % of control.

`CN(C)c1ccc(/C=C\c2ccnc3ccccc23)cc1Br` was tested, and the T/C [3] was 107 % of control, the T/C [4] was 94 % of control and the T/C [5] was 99 % of control. For the same compound, the T/C [6] was 89 % of control.

With `O=C(O)c1ccc(S(=O)(=O)O)cc1C(=O)O` the T/C [7] was 104 % of control, the T/C [8] was 100 % of control and the T/C [9] was 91 % of control.

`CCN(c1ccc(C=O)cc1)c1ccc([N+](=O)[O-])cc1[N+](=O)[O-]` was tested, and the T/C (dose: 50.0 mg/kg/injection, schedule: Q01DX009 (ip), vehicle: Klucel (hydroxypropylcellulose) (HPC)) was 99 % of control, the T/C [10] was 97 % of control and the T/C [11] was 97 % of control.

With `CC/C(C)=N\NC(=S)SC` the T/C (dose: 3.13 mg/kg/injection, schedule: Q01DX009 (ip), vehicle: saline with Tween-80) was 98 % of control, the T/C (dose: 6.25 mg/kg/injection, schedule: Q01DX009 (ip), vehicle: saline with Tween-80) was 102 % of control and the T/C [3] was 102 % of control.

With `c1ccc(CC2(Cc3ccccc3)SCCS2)cc1` the T/C [10] was 105 % of control, the T/C [12] was 95 % of control and the T/C [11] was 105 % of control. For the same compound, the T/C [13] was 104 % of control, the T/C (dose: 400.0 mg/kg/injection, schedule: Q01DX009 (ip), vehicle: Klucel (hydroxypropylcellulose) (HPC)) was 115 % of control and the T/C [14] was 104 % of control.

In the case of `C[C@]12CC[C@H]3[C@@H](CC[C@H]4N(CCCl)CCC[C@]34C)[C@@H]1CC[C@@H]2O`, the T/C (dose: 12.5 mg/kg/injection, schedule: Q01DX001 (ip), vehicle: saline) is reported as 105 % of control and the T/C (dose: 25.0 mg/kg/injection, schedule: Q01DX001 (ip), vehicle: saline) is reported as 109 % of control.

For `COc1ccc(/C=C/C(=O)c2ccc(OC)cc2)cc1`, the T/C [12] was 100 % of control, the T/C [13] was 104 % of control and the T/C [14] was 95 % of control.

In the case of `C[C@]12CC[C@H]3[C@@H](CCC4=C[C@@H](OC5OCC(OC6OC(CO)C(O)C(O)C6O)C(O)C5O)CC[C@@]43C=O)[C@@]1(O)CCC2C1=CC(=O)OC1` (stereo not given in full), the T/C (dose: 2.5 mg/kg/injection, schedule: Q01DX009 (ip), vehicle: saline) is reported as 122 % of control and the T/C (dose: 5.0 mg/kg/injection, schedule: Q01DX009 (ip), vehicle: saline) is reported as 111 % of control.

`O=C(Nc1ccccc1O)/C(Cl)=C/Cl` was tested, and the T/C (dose: 22.0 mg/kg/injection, schedule: Q01DX009 (ip), vehicle: saline with Tween-80) was 122 % of control and the T/C (dose: 33.0 mg/kg/injection, schedule: Q01DX009 (ip), vehicle: saline with Tween-80) was 123 % of control.

With `Cc1cc(C)c(N)c(Br)c1` the T/C [1] was 90 % of control, the T/C [2] was 90 % of control and the T/C (dose: 50.0 mg/kg/injection, schedule: Q01DX009 (ip), vehicle: other) was 114 % of control. For the same compound, the T/C (dose: 100.0 mg/kg/injection, schedule: Q04DX003 (ip), vehicle: other) was 100 % of control.

`CCCCCCCCCCCCCCCCNc1cccc2ccccc12` was tested, and the T/C [15] was 86 % of control, the T/C [16] was 104 % of control and the T/C [17] was 95 % of control.

For `CCOC(=O)C(O)c1cccc(OC)c1` (stereo not given), the T/C [6] was 100 % of control, the T/C [15] was 118 % of control and the T/C [18] was 100 % of control. The T/C [16] was 100 % of control, the T/C (dose: 400.0 mg/kg/injection, schedule: Q01DX009 (ip), vehicle: saline with Tween-80) was 104 % of control and the T/C [17] was 100 % of control.

For `COCC12CCC(OC)C34C5CC6(O)C(OC)CC(OC(C)=O)(C5C6OC(=O)c5ccccc5)C(C(OC)C13)C4N(C)C2` (stereo not given), the T/C (dose: 0.13 mg/kg/injection, schedule: Q01DX009 (ip), vehicle: Klucel (hydroxypropylcellulose) (HPC)) was 93 % of control, the T/C (dose: 0.25 mg/kg/injection, schedule: Q01DX009 (ip), vehicle: Klucel (hydroxypropylcellulose) (HPC)) was 88 % of control and the T/C (dose: 0.5 mg/kg/injection, schedule: Q01DX009 (ip), vehicle: Klucel (hydroxypropylcellulose) (HPC)) was 102 % of control. For the same compound, the T/C (dose: 1.0 mg/kg/injection, schedule: Q01DX009 (ip), vehicle: Klucel (hydroxypropylcellulose) (HPC)) was 102 % of control.

For `CC1CSCC(C)O1` (stereo not given), the T/C [5] was 90 % of control, the T/C [6] was 100 % of control and the T/C [8] was 100 % of control. For the same compound, the T/C [18] was 104 % of control, the T/C [9] was 100 % of control and the T/C [19] was 104 % of control.

In the case of `Nc1ccc(OCCNS(=O)(=O)c2cccc(S(=O)(=O)F)c2)c(Cl)c1`, the T/C (dose: 25.0 mg/kg/injection, schedule: Q01DX009 (ip), vehicle: saline) is reported as 107 % of control, the T/C (dose: 50.0 mg/kg/injection, schedule: Q01DX009 (ip), vehicle: saline) is reported as 104 % of control and the T/C [7] is reported as 103 % of control. The T/C (dose: 100.0 mg/kg/injection, schedule: Q01DX009 (ip), vehicle: saline) was 114 % of control, the T/C [8] was 103 % of control and the T/C (dose: 200.0 mg/kg/injection, schedule: Q01DX009 (ip), vehicle: saline) was 105 % of control. For the same compound, the T/C [9] was 103 % of control and the T/C [19] was 100 % of control.

`S=c1nc[nH]c2c1ncn2CN1CCCCC1` was tested, and the T/C (dose: 66.0 mg/kg/injection, schedule: Q01DX009 (ip), vehicle: saline with Tween-80) was 122 % of control and the T/C (dose: 150.0 mg/kg/injection, schedule: Q01DX009 (ip), vehicle: saline with Tween-80) was 154 % of control.

`O=C(NC(=O)c1c(F)cccc1F)Nc1ccc(Cl)c2ccccc12` was tested, and the T/C [4] was 91 % of control, the T/C [5] was 100 % of control and the T/C [6] was 90 % of control.

In the case of `CC1NNC(=O)C1(Br)Br` (stereo not given), the T/C (dose: 1.56 mg/kg/injection, schedule: Q01DX009 (ip), vehicle: gum acacia) is reported as 113 % of control, the T/C (dose: 3.12 mg/kg/injection, schedule: Q01DX009 (ip), vehicle: gum acacia) is reported as 113 % of control and the T/C (dose: 6.25 mg/kg/injection, schedule: Q01DX009 (ip), vehicle: gum acacia) is reported as 94 % of control.

`CCOC(=O)C(C#N)c1cccc(C)c1` (stereo not given) was tested, and the T/C (dose: 100.0 mg/kg/injection, schedule: Q04DX003 (ip), vehicle: saline with Tween-80) was 100 % of control and the T/C (dose: 200.0 mg/kg/injection, schedule: Q04DX003 (ip), vehicle: saline with Tween-80) was 100 % of control.

With `CC1(C)N=C(N)N=C(N)N1c1cccc(CCCCc2ccc(Cl)c(S(=O)(=O)F)c2)c1` the T/C (dose: 1.8 mg/kg/injection, schedule: Q01DX009 (ip), vehicle: saline) was 100 % of control, the T/C (dose: 3.13 mg/kg/injection, schedule: Q01DX009 (ip), vehicle: saline) was 112 % of control and the T/C (dose: 4.0 mg/kg/injection, schedule: Q01DX009 (ip), vehicle: saline) was 114 % of control. For the same compound, the T/C (dose: 6.0 mg/kg/injection, schedule: Q01DX009 (ip), vehicle: saline) was 122 % of control, the T/C (dose: 7.0 mg/kg/injection, schedule: Q04DX003 (ip), vehicle: saline) was 109 % of control and the T/C (dose: 9.0 mg/kg/injection, schedule: Q01DX009 (ip), vehicle: saline) was 107 % of control. For the same compound, the T/C (dose: 12.5 mg/kg/injection, schedule: Q01DX009 (ip), vehicle: saline) was 120 % of control, the T/C (dose: 14.0 mg/kg/injection, schedule: Q01DX009 (ip), vehicle: saline) was 150 % of control and the T/C (dose: 14.0 mg/kg/injection, schedule: Q04DX003 (ip), vehicle: saline) was 118 % of control. The T/C (dose: 28.0 mg/kg/injection, schedule: Q04DX003 (ip), vehicle: saline) was 118 % of control and the T/C (dose: 56.0 mg/kg/injection, schedule: Q04DX003 (ip), vehicle: saline) was 104 % of control.
